This note sets out measurements from patent publication US10150760B2, “Compounds for use in preparing heterocyclic triazole agonists of the APJ receptor” (AMGEN INC., priority 2016, dated 2018).

In the assay the target is human APJ receptor (Homo sapiens (Human), UniProt P35414). The experiment in a line: [35S]GTPγS binding assay on membranes from CHO cells stably expressing human APJ receptor. The assay is classed as biochemical. To be noted: read-out: Activity hAPJ SPA EC50 IP. The method, boiled down:
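Membranes from CHO cells stably expressing human APJ incubated with ligand, 0.2 nM [35S]GTPγS and WGA SPA beads in HEPES pH 7.5 with 5 mM MgCl2, 200 mM NaCl, 3 μM GDP, 90 min at RT. Nonspecific binding defined with 100 μM GTPγS; EC50 by non-linear regression.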

Sequence of human APJ receptor (P35414 whole entry): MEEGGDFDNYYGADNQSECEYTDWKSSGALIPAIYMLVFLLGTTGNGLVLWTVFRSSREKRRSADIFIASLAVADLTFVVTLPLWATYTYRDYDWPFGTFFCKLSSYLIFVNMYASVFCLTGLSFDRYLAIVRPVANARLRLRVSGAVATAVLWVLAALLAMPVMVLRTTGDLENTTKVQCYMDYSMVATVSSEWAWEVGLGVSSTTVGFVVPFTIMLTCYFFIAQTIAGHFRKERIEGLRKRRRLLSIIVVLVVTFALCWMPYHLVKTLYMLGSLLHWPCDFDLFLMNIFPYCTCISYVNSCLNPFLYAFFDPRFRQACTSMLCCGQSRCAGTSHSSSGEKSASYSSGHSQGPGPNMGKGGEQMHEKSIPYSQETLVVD

With `COc1cccc(OC)c1-n1c(NS(=O)(=O)[C@@H](C)[C@@H](OC(C)C)c2ncc(C)cn2)nnc1[C@@H]1COC(C)(C)C1` (single isomer, unassigned) [Example 412.0, (1S,2S)-N-(4-(2,6-dimethoxyphenyl)-5-((3R)-5,5-dimethyltetrahydro-3-furanyl)-4H-1,2,4-triazol-3-yl)-1-(5-methyl-2-pyrimidinyl)-1-(2-propanyloxy)-2-propanesulfonamide or (1S,2S)-N-(4-(2,6-dimethoxyphenyl)-5-((3S)-5,5-dimethyltetrahydro-3-furanyl)-4H-1,2,4-triazol-3-yl)-1-(5-methyl-2-pyrimidinyl)-1-(2-propanyloxy)-2-propanesulfonamide], the EC50 is 40 nM. In the case of `COc1cccc(OC)c1-n1c(NS(=O)(=O)[C@@H](C)[C@@H](OC(C)C)c2ncc(Cl)cn2)nnc1[C@H]1CCC(C)(C)O1` (single isomer, unassigned) [Example 413.0, (1S,2S)-1-(5-chloro-2-pyrimidinyl)-N-(4-(2,6-dimethoxyphenyl)-5-((2R)-5,5-dimethyltetrahydro-2-furanyl)-4H-1,2,4-triazol-3-yl)-1-(2-propanyloxy)-2-propanesulfonamide or (1S,2S)-1-(5-chloro-2-pyrimidinyl)-N-(4-(2,6-dimethoxyphenyl)-5-((2S)-5,5-dimethyltetrahydro-2-furanyl)-4H-1,2,4-triazol-3-yl)-1-(2-propanyloxy)-2-propanesulfonamide], the 50% effective concentration (EC50) stood at 7.4 nM. Take `COc1cccc(OC)c1-n1c(NS(=O)(=O)[C@@H](C)[C@@H](OC(C)C)c2ncc(Cl)cn2)nnc1[C@H]1CCC(C)(C)O1` (single isomer, unassigned) [Example 414.0, (1S,2S)-1-(5-chloro-2-pyrimidinyl)-N-(4-(2,6-dimethoxyphenyl)-5-((2R)-5,5-dimethyltetrahydro-2-furanyl)-4H-1,2,4-triazol-3-yl)-1-(2-propanyloxy)-2-propanesulfonamide or (1S,2S)-1-(5-chloro-2-pyrimidinyl)-N-(4-(2,6-dimethoxyphenyl)-5-((2S)-5,5-dimethyltetrahydro-2-furanyl)-4H-1,2,4-triazol-3-yl)-1-(2-propanyloxy)-2-propanesulfonamide]: the EC50 turned out to be 1.2 nM. With `C[C@H](c1ncc(Cl)cn1)[C@H](C)S(=O)(=O)Nc1nnc([C@@H]2CCOC2)n1[C@H](C)c1ccon1` (single isomer, unassigned) [Example 415.0, (2S,3R)-3-(5-chloro-2-pyrimidinyl)-N-(4-((1R)-1-(1,2-oxazol-3-yl)ethyl)-5-((3S)-tetrahydro-3-furanyl)-4H-1,2,4-triazol-3-yl)-2-butanesulfonamide or (2S,3R)-3-(5-chloro-2-pyrimidinyl)-N-(4-((1S)-1-(1,2-oxazol-3-yl)ethyl)-5-((3S)-tetrahydro-3-furanyl)-4H-1,2,4-triazol-3-yl)-2-butanesulfonamide], the EC50 came to 230 nM. In the case of `C[C@H](c1ncc(Cl)cn1)[C@H](C)S(=O)(=O)Nc1nnc([C@@H]2CCOC2)n1[C@H](C)c1ccon1` (single isomer, unassigned) [Example 416.0, (2S,3R)-3-(5-chloro-2-pyrimidinyl)-N-(4-((1R)-1-(1,2-oxazol-3-yl)ethyl)-5-((3S)-tetrahydro-3-furanyl)-4H-1,2,4-triazol-3-yl)-2-butanesulfonamide or (2S,3R)-3-(5-chloro-2-pyrimidinyl)-N-(4-((1S)-1-(1,2-oxazol-3-yl)ethyl)-5-((3S)-tetrahydro-3-furanyl)-4H-1,2,4-triazol-3-yl)-2-butanesulfonamide] it was 190 nM; in that of `COc1cccc(OC)c1-n1c(NS(=O)(=O)[C@@H](C)[C@@H](OC(C)C)c2ncc(C)cn2)nnc1[C@H]1CCC(=O)N1C` (single isomer, unassigned) [Example 417.0, (1S,2S)-N-(4-(2,6-dimethoxyphenyl)-5-((2R)-1-methyl-5-oxo-2-pyrrolidinyl)-4H-1,2,4-triazol-3-yl)-1-(5-methyl-2-pyrimidinyl)-1-(2-propanyloxy)-2-propanesulfonamide or (1S,2S)-N-(4-(2,6-dimethoxyphenyl)-5-((2S)-1-methyl-5-oxo-2-pyrrolidinyl)-4H-1,2,4-triazol-3-yl)-1-(5-methyl-2-pyrimidinyl)-1-(2-propanyloxy)-2-propanesulfonamide], 190 nM; in that of `COc1cccc(OC)c1-n1c(NS(=O)(=O)[C@@H](C)[C@@H](OC(C)C)c2ncc(C)cn2)nnc1[C@H]1CCC(=O)N1C` (single isomer, unassigned) [Example 418.0, (1S,2S)-N-(4-(2,6-dimethoxyphenyl)-5-((2R)-1-methyl-5-oxo-2-pyrrolidinyl)-4H-1,2,4-triazol-3-yl)-1-(5-methyl-2-pyrimidinyl)-1-(2-propanyloxy)-2-propanesulfonamide or (1S,2S)-N-(4-(2,6-dimethoxyphenyl)-5-((2S)-1-methyl-5-oxo-2-pyrrolidinyl)-4H-1,2,4-triazol-3-yl)-1-(5-methyl-2-pyrimidinyl)-1-(2-propanyloxy)-2-propanesulfonamide], 350 nM. To `COc1cccc(OC)c1-n1c(NS(=O)(=O)[C@@H](C)[C@H](C)c2ncc(Cl)cn2)nnc1[C@H]1CCC(=O)N1C` (single isomer, unassigned) [Example 419.0, (2S,3R)-3-(5-chloro-2-pyrimidinyl)-N-(4-(2,6-dimethoxyphenyl)-5-((2R)-1-methyl-5-oxo-2-pyrrolidinyl)-4H-1,2,4-triazol-3-yl)-2-butanesulfonamide or ((2S,3R)-3-(5-chloro-2-pyrimidinyl)-N-(4-(2,6-dimethoxyphenyl)-5-((2S)-1-methyl-5-oxo-2-pyrrolidinyl)-4H-1,2,4-triazol-3-yl)-2-butanesulfonamide] belongs 3430 nM; to `COc1cccc(OC)c1-n1c(NS(=O)(=O)CCc2ncc(Cl)cn2)nnc1[C@@H]1COCCO1` (single isomer, unassigned) [Example 424.0, 2-(5-chloro-2-pyrimidinyl)-N-(4-(2,6-dimethoxyphenyl)-5-((2R)-1,4-dioxan-2-yl)-4H-1,2,4-triazol-3-yl)ethanesulfonamide or 2-(5-chloro-2-pyrimidinyl)-N-(4-(2,6-dimethoxyphenyl)-5-((2S)-1,4-dioxan-2-yl)-4H-1,2,4-triazol-3-yl)ethanesulfonamide], 52 nM. In the case of `COc1cccc(OC)c1-n1c(NS(=O)(=O)CCc2ncc(Cl)cn2)nnc1[C@@H]1COCCO1` (single isomer, unassigned) [Example 425.0, 2-(5-chloro-2-pyrimidinyl)-N-(4-(2,6-dimethoxyphenyl)-5-((2R)-1,4-dioxan-2-yl)-4H-1,2,4-triazol-3-yl)ethanesulfonamide or 2-(5-chloro-2-pyrimidinyl)-N-(4-(2,6-dimethoxyphenyl)-5-((2S)-1,4-dioxan-2-yl)-4H-1,2,4-triazol-3-yl)ethanesulfonamide], the EC50 was found to be 130 nM. In the case of `COc1cccc(OC)c1-n1c(NS(=O)(=O)[C@@H](C)[C@H](C)c2ncc(Cl)cn2)nnc1[C@H]1CCO1` (single isomer, unassigned) [Example 445.0, (2S,3R)-3-(5-chloropyrimidin-2-yl)-N-(4-(2,6-dimethoxyphenyl)-5-((R)-oxetan-2-yl)-4H-1,2,4-triazol-3-yl)butane-2-sulfonamide or (2S,3R)-3-(5-chloropyrimidin-2-yl)-N-(4-(2,6-dimethoxyphenyl)-5-((S)-oxetan-2-yl)-4H-1,2,4-triazol-3-yl)butane-2-sulfonamide] it was 30 nM; in that of `COc1cccc(OC)c1-n1c(NS(=O)(=O)[C@@H](C)[C@H](C)c2ncc(Cl)cn2)nnc1[C@@H]1CCN(C(=O)OC(C)(C)C)C1` (stereo in doubt) [Example 41.0, tert-butyl (3R)-3-(5-((((1S,2R)-2-(5-chloro-2-pyrimidinyl)-1-methylpropyl)sulfonyl)amino)-4-(2,6-dimethoxyphenyl)-4H-1,2,4-triazol-3-yl)-1-pyrrolidinecarboxylate or tert-butyl (3S)-3-(5-((((1S,2R)-2-(5-chloro-2-pyrimidinyl)-1-methylpropyl)sulfonyl)amino)-4-(2,6-dimethoxyphenyl)-4H-1,2,4-triazol-3-yl)-1-pyrrolidinecarboxylate], 820 nM. In the case of `COc1cccc(OC)c1-n1c(NS(=O)(=O)[C@@H](C)[C@H](C)c2ncc(Cl)cn2)nnc1[C@H]1CCN(C(=O)OC(C)(C)C)C1` (stereo in doubt) [Example 42.0, tert-butyl (3S)-3-(5-((((1S,2R)-2-(5-chloro-2-pyrimidinyl)-1-methylpropypsulfonyl)amino)-4-(2,6-dimethoxyphenyl)-4H-1,2,4-triazol-3-yl)-1-pyrrolidinecarboxylate or tert-butyl (3R)-3-(5-((((1S,2R)-2-(5-chloro-2-pyrimidinyl)-1-methylpropypsulfonyl)amino)-4-(2,6-dimethoxyphenyl)-4H-1,2,4-triazol-3-yl)-1-pyrrolidinecarboxylate] it was 210 nM. In the case of `COc1cccc(OC)c1-n1c(NS(=O)(=O)[C@H](C)Cc2ncc(F)cn2)nnc1[C@H]1CCOC1` [Example 6.0] it was 400 nM.

Take `Cc1cnc([C@@H](C)[C@H](C)S(=O)(=O)Nc2nnc([C@@H]3CCCO3)n2-c2c(F)cccc2F)nc1` [Example 18.0, (2S,3R)-N-(4-(2,6-difluorophenyl)-5-((2S)-tetrahydro-2-furanyl)-4H-1,2,4-triazol-3-yl)-3-(5-methyl-2-pyrimidinyl)-2-butanesulfonamide]: the EC50 was found to be 120 nM. Regarding `Cc1cnc([C@@H](C)[C@H](C)S(=O)(=O)Nc2nnc([C@H]3CCCO3)n2-c2c(F)cccc2F)nc1` [Example 19.0, (2S,3R)-N-(4-(2,6-difluorophenyl)-5-((2R)-tetrahydro-2-furanyl)-4H-1,2,4-triazol-3-yl)-3-(5-methyl-2-pyrimidinyl)-2-butanesulfonamide], the EC50 turned out to be 60 nM.
